Reference: patent USRE40839E1 (The United States of America as represented by the …, priority 1992, dated 2009)

Tests used:
[1] = test system: diffuse large cell lymphoma; assay: 96 hour continuous infusion every 21 days in lymphoma patients; format: in vivo, human; conditions: 70-140 mg/M^2/96 hrs every 21 days
Description: This 96 hr continuous infusion was repeated every 21 days, while patients were monitored for a response after every two cycles.

melanoma = conditions: 30 patients with melanoma; 250 mg/M^2 as 24 hour continuous infusion; cited from earlier work
patients = conditions: infusion times up to 24 hours; cited from earlier work
breast cancer [2] = conditions: 24 hour infusion at 250 mg/M^2; similar breast cancer patient group; cited from earlier work
breast cancer [3] = assay: 96 hour continuous infusion every 21 days in breast cancer patients; conditions: 70-140 mg/M^2/96 hrs every 21 days
[4] = test system: refractory acute leukemia; conditions: cited from earlier work
mammalian cells = conditions: actively dividing cells; cited from earlier work
ovarian cancer = conditions: 34 patients with ovarian cancer; 250 mg/M^2 as 24 hour continuous infusion; cited from earlier work
[5] = 6 patients with diffuse large cell lymphoma

With `CC(=O)O[C@H]1C(=O)[C@@]2(C)[C@H]([C@H](OC(=O)c3ccccc3)[C@]3(O)C[C@H](OC(=O)[C@H](O)[C@@H](NC(=O)c4ccccc4)c4ccccc4)C(C)=C1C3(C)C)[C@]1(OC(C)=O)CO[C@@H]1C[C@@H]2O` [Taxol] the “number of minor remissions (MR)” value [1, 5] was 1 patients, the “number of partial remissions (PR)” value [1, 5] was 3 patients and the partial remission rate [1, 5] was 50%. For the same compound, the “patients in whom Taxol was active (PR + MR)” value ([1]; diffuse large cell lymphoma) was 4 out of 6, the objective response rate (melanoma) was 13% and the dose limiting toxicity (patients) was “reversible myclosuppression”. The response rate (breast cancer [2]) was 33%, the “number of minor remissions (MR)” value (breast cancer [3]; 11 breast cancer patients) was 2 patients and the “number of partial remissions (PR)” value (breast cancer [3]; 11 breast cancer patients) was 7 patients. The partial remission rate (breast cancer [3]; 11 breast cancer patients) was 64%, the total response rate (breast cancer [3]; 11 breast cancer patients) was 82% and the “patients with positive response (PR + MR)” value (breast cancer [3]; breast cancer, prior doxorubicin or mitoxantrone regimen) was 9 out of the 11. For the same compound, the “toxicity limiting further dose escalation” value ([4]; 17 patients, 24 hour continuous infusion, 200 to 390 mg/M^2) was “Severe mucositis”, the maximum tolerated dose ([4]; 17 patients, 24 hour continuous infusion, escalated from 200 to 390 mg/M^2) was 390 mg/M^2 and the “patients with transient reductions in peripheral blood and bone marrow blasts” value ([4]; of 17 patients) was “Nine”. For the same compound, the “Taxol concentration that usually causes a significant increase in microtubule number, changes in cell shape and mitotic arrest” value (mammalian cells) was 50 Nm, the major toxicities (ovarian cancer) was “neutropenia and peripheral neuropathy” and the objective response rate (ovarian cancer) was 21%.
